Here are results for 9 compounds from patent publication US9499550B2 (BRISTOL-MYERS SQUIBB COMPANY, priority 2012, dated 2016).

Assay [1] deals with HCV genotype 1a (H77 strain) replicon in HUH-7 cells. The assay is described as follows: HCV replicon luciferase reporter assay, genotype 1a. Type of assay: cell-based. Particulars: Hepatitis C virus, Huh-7, 72 h, HCV genotype 1a replicon luciferase assay, 3 days incubation, range class, read-out: LE_1a (EC50, range). In outline: (§1)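 Replicon inhibition for both genotypes was measured as Renilla luciferase signal (EnduRen, 7.5 μM final, 2 h) after 3-day, 37° C exposure of replicon-bearing HUH-7 cells in 4% FCS DMEM, 0.5% DMSO. The 1b construct carries S1179I; the 1a H77 construct carries P1496L and S2204I. Twenty-point, 3-fold dilutions were fitted four-parametrically for EC50, and CC50 was taken from multiplexed Cell Titer-Blue.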
Background: Replicon systems follow genome replication, usually without infectious particles.

The subject of assay [2] is HCV genotype 1b (Con1) replicon in HUH-7 cells. The assay is described as follows: HCV replicon luciferase reporter assay, genotype 1b. As to conditions: Hepatitis C virus, Huh-7, 72 h, HCV genotype 1b replicon luciferase assay, 3 days incubation, range class, read-out: LE_1b (EC50, range). In kind it is cell-based. In outline:
as §1

For the compound `COc1ccc2c(O[C@@H]3C[C@H]4C(=O)N[C@]5(C(=O)NS(=O)(=O)C6(C)CC6)C[C@H]5/C=C\CC[C@@H](C)C[C@@H](C)[C@H](NC(=O)O[C@H](C)C(F)(F)F)C(=O)N4C3)nc(-c3ccc(F)cc3)cc2c1` [Compound 3083, (R)-1,1,1-trifluoropropan-2-yl ((2R,6S,7R,9R,13aS,14aR,16aS,Z)-2-((3-(4-fluorophenyl)-6-methoxyisoquinolin-1-yl)oxy)-7,9-dimethyl-14a-(((1-methylcyclopropyl)sulfonyl)carbamoyl)-5,16-dioxo-1,2,3,5,6,7,8,9,10,11,13a,14,14a,15,16,16a-hexadecahydrocyclopropa[e]pyrrolo[1,2-a][1,4]diazacyclopentadecin-6-yl)carbamate], the concentration giving a half-maximal response (EC50) in assay [1] and in assay [2] was < 5.46 nM in each case.
As to `COc1ccc2c(O[C@@H]3C[C@H]4C(=O)N[C@]5(C(=O)NS(=O)(=O)C6(C)CC6)C[C@H]5/C=C\CC[C@H](C)C[C@@H](C)[C@H](NC(=O)OCC5(C)CC5)C(=O)N4C3)nc(-c3ccc(F)cc3)cc2c1` [Compound 3084, (1-methylcyclopropyl)methyl ((2R,6S,7R,9S,13aS,14aR,16aS,Z)-2-((3-(4-fluorophenyl)-6-methoxyisoquinolin-1-yl)oxy)-7,9-dimethyl-14a-(((1-methylcyclopropyl)sulfonyl)carbamoyl)-5,16-dioxo-1,2,3,5,6,7,8,9,10,11,13a,14,14a,15,16,16a-hexadecahydrocyclopropa[e]pyrrolo[1,2-a][1,4]diazacyclopentadecin-6-yl)carbamate], the EC50 in assay [1] was 4.82 to 103 nM; in assay [2] it was < 5.46 nM.
On the same counts, the results for `COc1ccc2c(O[C@@H]3C[C@H]4C(=O)N[C@]5(C(=O)NS(=O)(=O)C6(C)CC6)C[C@H]5/C=C\CC[C@@H](C)C[C@@H](C)[C@H](NC(=O)OCC5(C)CC5)C(=O)N4C3)nc(-c3ccc(F)cc3)cc2c1` [Compound 3085, (1-methylcyclopropyl)methyl ((2R,6S,7R,9R,13aS,14aR,16aS,Z)-2-((3-(4-fluorophenyl)-6-methoxyisoquinolin-1-yl)oxy)-7,9-dimethyl-14a-(((1-methylcyclopropyl)sulfonyl)carbamoyl)-5,16-dioxo-1,2,3,5,6,7,8,9,10,11,13a,14,14a,15,16,16a-hexadecahydrocyclopropa[e]pyrrolo[1,2-a][1,4]diazacyclopentadecin-6-yl)carbamate] are < 5.46 nM and < 5.46 nM.
On the same counts, the results for `COc1ccc2c(O[C@@H]3C[C@H]4C(=O)N[C@]5(C(=O)NS(=O)(=O)C6(C)CC6)C[C@H]5/C=C\CC[C@H](C)C[C@@H](C)[C@H](NC(=O)O[C@@H]5C[C@@H]6C[C@@H]6C5)C(=O)N4C3)nc(-c3ccc(F)cc3)cc2c1` [Compound 3086, (1R,3r,5S)-bicyclo[3.1.0]hexan-3-yl((2R,6S,7R,9S,13aS,14aR,16aS,Z)-2-((3-(4-fluorophenyl)-6-methoxyisoquinolin-1-yl)oxy)-7,9-dimethyl-14a-(((1-methylcyclopropyl)sulfonyl)carbamoyl)-5,16-dioxo-1,2,3,5,6,7,8,9,10,11,13a,14,14a,15,16,16a-hexadecahydrocyclopropa[e]pyrrolo[1,2-a][1,4]diazacyclopentadecin-6-yl)carbamate] are < 5.46 nM and < 5.46 nM.
On the same counts, the results for `COc1ccc2c(O[C@@H]3C[C@H]4C(=O)N[C@]5(C(=O)NS(=O)(=O)C6(C)CC6)C[C@H]5/C=C\CC[C@@H](C)C[C@@H](C)[C@H](NC(=O)O[C@@H]5C[C@@H]6C[C@@H]6C5)C(=O)N4C3)nc(-c3ccc(F)cc3)cc2c1` [Compound 3087, (1R,3r,5S)-bicyclo[3.1.0]hexan-3-yl((2R,6S,7R,9R,13aS,14aR,16aS,Z)-2-((3-(4-fluorophenyl)-6-methoxyisoquinolin-1-yl)oxy)-7,9-dimethyl-14a-(((1-methylcyclopropyl)sulfonyl)carbamoyl)-5,16-dioxo-1,2,3,5,6,7,8,9,10,11,13a,14,14a,15,16,16a-hexadecahydrocyclopropa[e]pyrrolo[1,2-a][1,4]diazacyclopentadecin-6-yl)carbamate] are < 5.46 nM and < 5.46 nM.
Take `COc1ccc2c(O[C@@H]3C[C@H]4C(=O)N[C@]5(C(=O)NS(=O)(=O)C6(C)CC6)C[C@H]5/C=C\CC[C@H](C)C[C@@H](C)[C@H](NC(=O)OC(C)(C)C)C(=O)N4C3)nc(N3CCOCC3)cc2c1` [Compound 3088, tert-butyl ((2R,6S,7R,9S,13aS,14aR,16aS,Z)-2-((6-methoxy-3-morpholinoisoquinolin-1-yl)oxy)-7,9-dimethyl-14a-(((1-methylcyclopropyl)sulfonyl)carbamoyl)-5,16-dioxo-1,2,3,5,6,7,8,9,10,11,13a,14,14a,15,16,16a-hexadecahydrocyclopropa[e]pyrrolo[1,2-a][1,4]diazacyclopentadecin-6-yl)carbamate]: the concentration for a half-maximal effect (EC50) in assay [1] and in assay [2] was < 5.46 nM each time.
Consider `COc1ccc2c(O[C@@H]3C[C@H]4C(=O)N[C@]5(C(=O)NS(=O)(=O)C6(C)CC6)C[C@H]5/C=C\CC[C@@H](C)C[C@@H](C)[C@H](NC(=O)OC(C)(C)C)C(=O)N4C3)nc(N3CCOCC3)cc2c1` [Compound 3089, tert-butyl ((2R,6S,7R,9R,13aS,14aR,16aS,Z)-2-((6-methoxy-3-morpholinoisoquinolin-1-yl)oxy)-7,9-dimethyl-14a-(((1-methylcyclopropyl)sulfonyl)carbamoyl)-5,16-dioxo-1,2,3,5,6,7,8,9,10,11,13a,14,14a,15,16,16a-hexadecahydrocyclopropa[e]pyrrolo[1,2-a][1,4]diazacyclopentadecin-6-yl)carbamate], for which the EC50 in assay [1] and in assay [2] was < 5.46 nM each time.
Regarding `COc1ccc2c(O[C@@H]3C[C@H]4C(=O)N[C@]5(C(=O)NS(=O)(=O)C6(C)CC6)C[C@H]5/C=C\CC[C@H](C)C[C@@H](C)[C@H](NC(=O)OCC5(C)CC5)C(=O)N4C3)nc(N3CCOCC3)cc2c1` [Compound 3090, (1-methylcyclopropyl)methyl ((2R,6S,7R,9S,13aS,14aR,16aS,Z)-2-((6-methoxy-3-morpholinoisoquinolin-1-yl)oxy)-7,9-dimethyl-14a-(((1-methylcyclopropyl)sulfonyl)carbamoyl)-5,16-dioxo-1,2,3,5,6,7,8,9,10,11,13a,14,14a,15,16,16a-hexadecahydrocyclopropa[e]pyrrolo[1,2-a][1,4]diazacyclopentadecin-6-yl)carbamate], the EC50 in assay [1] is 4.82 to 103 nM; in assay [2], < 5.46 nM.
On the same counts, the results for `COc1ccc2c(O[C@@H]3C[C@H]4C(=O)N[C@]5(C(=O)NS(=O)(=O)C6(C)CC6)C[C@H]5/C=C\CC[C@@H](C)C[C@@H](C)[C@H](NC(=O)OCC5(C)CC5)C(=O)N4C3)nc(N3CCOCC3)cc2c1` [Compound 3091, (1-methylcyclopropyl)methyl ((2R,6S,7R,9R,13aS,14aR,16aS,Z)-2-((6-methoxy-3-morpholinoisoquinolin-1-yl)oxy)-7,9-dimethyl-14a-(((1-methylcyclopropyl)sulfonyl)carbamoyl)-5,16-dioxo-1,2,3,5,6,7,8,9,10,11,13a,14,14a,15,16,16a-hexadecahydrocyclopropa[e]pyrrolo[1,2-a][1,4]diazacyclopentadecin-6-yl)carbamate] are < 5.46 nM and < 5.46 nM.

As usually defined, the EC50 is the midpoint of the concentration-response curve.
